What is called IC50 is the concentration that gives 50% inhibition. Read a high IC50 as weaker potency in that assay.

This note sets out measurements from ChEMBL document CHEMBL3120150, “Syntheses and structure-activity relationships for some triazolyl p38α MAPK inhibitors” (Bioorg Med Chem Lett, 2014).

Active and inactive are the calls of the source. No cut-off for these calls is given here. Some results are limits rather than exact numbers.

The target in assay [1] is Mitogen-activated protein kinase 14 (Homo sapiens, UniProt Q16539). In words: Inhibition of p38a MAPK (unknown origin) by radiometric assay.
Chain of Mitogen-activated protein kinase 14 (Q16539 whole entry): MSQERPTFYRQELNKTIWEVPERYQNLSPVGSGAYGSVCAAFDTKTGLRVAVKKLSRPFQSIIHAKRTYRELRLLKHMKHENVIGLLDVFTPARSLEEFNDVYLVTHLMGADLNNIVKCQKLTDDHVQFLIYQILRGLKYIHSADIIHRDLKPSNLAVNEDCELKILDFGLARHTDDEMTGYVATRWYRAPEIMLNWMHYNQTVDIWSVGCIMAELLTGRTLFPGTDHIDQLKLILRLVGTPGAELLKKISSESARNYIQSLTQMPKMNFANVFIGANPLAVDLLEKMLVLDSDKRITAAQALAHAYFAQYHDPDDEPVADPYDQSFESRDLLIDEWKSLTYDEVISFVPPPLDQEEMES
Assay [2] relates to HUVEC. In words: Inhibition of TNFalpha-induced COX2 gene expression in HUVEC at 10 uM. The assay is classed as functional, cell-based. The conditions noted are these: Homo sapiens.
Assay [3] concerns HUVEC. In words: Inhibition of TNFalpha-induced IL-6 gene expression in HUVEC at 10 uM. The assay is classed as functional, cell-based. The conditions noted are these: Homo sapiens.

In assay [1], `O[C@@H]1[C@@H](O)[C@H](O)O[C@H](Cn2cc(-c3nc(-c4ccc(F)cc4)c(-c4ccncc4)o3)nn2)[C@H]1O` returned an IC50 of 5730 nM. On the same count and under the same terms, the same measure for `OCCOCCOCCOCCOCCOCCOCCOCCn1cc(-c2nc(-c3ccc(F)cc3)c(-c3ccncc3)o2)nn1`: 23500 nM. With `Cn1cnc(-c2ccc(F)cc2)c1-c1ccncc1`, the inhibition entry in the assay with HUVEC [2] and with HUVEC [3] was “Active” throughout. The compound further had an IC50 in assay [1] of 430 nM.

Take `Fc1ccc(-c2nc(-c3c[nH]nn3)oc2-c2ccncc2)cc1`: in assay [1], the concentration for half-maximal inhibition (IC50) amounted to 380 nM. In the case of `CN(C)c1ccc(-n2cc(-c3nc(-c4ccc(F)cc4)c(-c4ccncc4)n3C)nn2)cc1`, the concentration for half-maximal inhibition (IC50) in assay [1] turned out to be 1400 nM.

For `O=C(O)[C@H]1OC(n2cc(-c3nc(-c4ccc(F)cc4)c(-c4ccncc4)o3)nn2)[C@H](O)[C@@H](O)[C@@H]1O` (some centres undefined), inhibition in assay [1] was half-maximal at 1170 nM (IC50). `C[C@@H](C(=O)O)n1cc(-c2nc(-c3ccc(F)cc3)c(-c3ccncc3)n2C)nn1` yielded an IC50 in assay [1] of 1440 nM. Still for that read-out and setting: next, `Cn1c(-c2cn(-c3ccccc3C(=O)O)nn2)nc(-c2ccc(F)cc2)c1-c1ccncc1`: 1530 nM; `Cn1c(-c2cn(CCO)nn2)nc(-c2ccc(F)cc2)c1-c1ccncc1`: 500 nM. On the same count and under the same terms, the same measure for `COC(=O)c1cccc(-n2cc(-c3nc(-c4ccc(F)cc4)c(-c4ccncc4)n3C)nn2)c1`: 990 nM. With `Cn1c(-c2cn(-c3ccccc3O)nn2)nc(-c2ccc(F)cc2)c1-c1ccncc1`, half-maximal inhibition in assay [1] (IC50) required 1590 nM. The same measure, in the same setting: the same measure for `Oc1ccccc1-n1cc(-c2nc(-c3ccc(F)cc3)c(-c3ccncc3)o2)nn1`: 2170 nM.

Regarding `Cn1c(-c2cnnn2CC(=O)O)nc(-c2ccc(F)cc2)c1-c1ccncc1`, the IC50 in assay [1] stood at 4200 nM.

`Cn1c(-c2cn(C(C)(C)C(=O)O)nn2)nc(-c2ccc(F)cc2)c1-c1ccncc1` gave a half-inhibitory concentration (IC50) in assay [1] of 1490 nM. Still for that read-out and setting: next, `OCCOCCOCCOCCn1cc(-c2nc(-c3ccc(F)cc3)c(-c3ccncc3)o2)nn1`: 12500 nM; `Fc1ccc(-c2nc(-c3cn(Cc4ccccc4)nn3)oc2-c2ccncc2)cc1`: 158000 nM; `Cn1c(-c2cn(-c3cccc(C(=O)O)c3)nn2)nc(-c2ccc(F)cc2)c1-c1ccncc1` [listing 1 of 2 here]: 185 nM. On the same count and under the same terms, next, `C[C@H](Nc1nccc(-c2c(-c3ccc(F)cc3)nc3nc(N)ccn23)n1)c1ccccc1`: 6 nM. As to `Cn1c(-c2cn(CCOP(=O)(O)O)nn2)nc(-c2ccc(F)cc2)c1-c1ccncc1`, in assay [1], 250 nM corresponded to half-maximal inhibition (IC50). On the same count and under the same terms, the same measure for `Cn1c(-c2cn(C[C@H]3O[C@@H](O)[C@H](O)[C@@H](O)[C@@H]3O)nn2)nc(-c2ccc(F)cc2)c1-c1ccncc1`: 400 nM; for `Cn1c(-c2cn(-c3ccc(C(=O)O)cc3)nn2)nc(-c2ccc(F)cc2)c1-c1ccncc1`: 140 nM.

In assay [1], `Cn1c(-c2cn(C3O[C@H](C(=O)O)[C@@H](O)[C@H](O)[C@H]3O)nn2)nc(-c2ccc(F)cc2)c1-c1ccncc1` (some centres undefined) yielded an IC50 of 590 nM. Regarding `O=C(O)c1ccccc1-n1cc(-c2nc(-c3ccc(F)cc3)c(-c3ccncc3)o2)nn1`, 6510 nM corresponded to half-maximal inhibition in assay [1] (IC50).

As for `Cn1c(-c2cn(CC(=O)NCCO)nn2)nc(-c2ccc(F)cc2)c1-c1ccncc1`, the IC50 in assay [1] stood at 890 nM. In assay [1], `Cn1c(-c2c[nH]nn2)nc(-c2ccc(F)cc2)c1-c1ccncc1` yielded an IC50 of 140 nM. Same read-out and setting: the same measure for `Cn1c(-c2cn(CC(=O)O)nn2)nc(-c2ccc(F)cc2)c1-c1ccncc1` [listing 1 of 2 here]: 430 nM; for `Cn1c(-c2cn(-c3cccc(C(=O)O)c3)nn2)nc(-c2ccc(F)cc2)c1-c1ccncc1` [listing 2 of 2 here]: 91 nM; for `Cn1c(-c2cn(CC(=O)N3CCN(CCO)CC3)nn2)nc(-c2ccc(F)cc2)c1-c1ccncc1`: 3800 nM. On the same count and under the same terms, next, `Cn1c(-c2cn(CCOCCOCCOCCN)nn2)nc(-c2ccc(F)cc2)c1-c1ccncc1`: 5180 nM; `Cn1c(-c2cn(CCOCCOCCOCCOCCOCCOCCOCCO)nn2)nc(-c2ccc(F)cc2)c1-c1ccncc1`: 11600 nM.

With `Cn1c(-c2cn(CC(=O)O)nn2)nc(-c2ccc(F)cc2)c1-c1ccncc1` [listing 2 of 2 here], the concentration for half-maximal inhibition (IC50) in assay [1] was found to be 740 nM. Take `CN(C)c1ccc(-n2cc(-c3nc(-c4ccc(F)cc4)c(-c4ccncc4)o3)nn2)cc1`: in assay [1], inhibition was half-maximal at 19500 nM (IC50).

Take `Cn1c(-c2cn(CCOCCOCCOCCO)nn2)nc(-c2ccc(F)cc2)c1-c1ccncc1`: the IC50 in assay [1] came out at 11200 nM. The same measure, in the same setting: next, `Cn1c(-c2cn(CCP(=O)(O)O)nn2)nc(-c2ccc(F)cc2)c1-c1ccncc1`: 350 nM. In turn, `CCOC(=O)Cn1nncc1-c1nc(-c2ccc(F)cc2)c(-c2ccncc2)n1C` gave an IC50 in assay [1] of 56000 nM. On the same count and under the same terms, next, `CCOC(=O)Cn1cc(-c2nc(-c3ccc(F)cc3)c(-c3ccncc3)n2C)nn1`: 1870 nM; `C[C@@H](C(=O)O)n1cc(-c2nc(-c3ccc(F)cc3)c(-c3ccncc3)o2)nn1`: 11400 nM; `Cn1c(-c2cn(-c3cccc(C(=O)NCCCO)c3)nn2)nc(-c2ccc(F)cc2)c1-c1ccncc1`: 290 nM. Same read-out and setting: the same measure for `C#Cc1nc(-c2ccc(F)cc2)c(-c2ccncc2)o1`: 1790 nM. As for `C[S+]([O-])c1ccc(-c2nc(-c3ccc(F)cc3)c(-c3ccncc3)[nH]2)cc1` (centres undefined), the inhibition result with HUVEC [2] and in the assay on HUVEC [3] was “Active” each time. Consider `Cn1c(C#CCO)nc(-c2ccc(F)cc2)c1-c1ccncc1`, for which, in assay [1], the 50% inhibitory concentration (IC50) was determined as 460 nM. For the compound `O=C(O)c1ccc(-n2cc(-c3nc(-c4ccc(F)cc4)c(-c4ccncc4)o3)nn2)cc1`, in assay [1], the IC50 was 190 nM. Same read-out and setting: next, `O=C(O)Cn1cc(-c2nc(-c3ccc(F)cc3)c(-c3ccncc3)o2)nn1`: 3200 nM. Consider `Cn1c(-c2cn([C@@H]3[C@@H](O)[C@H](O)[C@@H](CO)O[C@@H]3O)nn2)nc(-c2ccc(F)cc2)c1-c1ccncc1`, for which the inhibition entry in the assay on HUVEC [2] and in the assay on HUVEC [3] was “Active” in each case. Also, the IC50 in assay [1] was determined as 710 nM. Consider `Cn1c(-c2cn([C@H]3CCNC[C@@H]3F)nn2)nc(-c2ccc(F)cc2)c1-c1ccncc1`, for which the inhibition entry with HUVEC [2] and with HUVEC [3] was “Active” each time. Moreover, in assay [1], 96 nM corresponded to half-maximal inhibition (IC50). Compound `CCOP(=O)(CCn1cc(-c2nc(-c3ccc(F)cc3)c(-c3ccncc3)n2C)nn1)OCC` showed a half-maximal inhibitory concentration (IC50) in assay [1] of over 100000 nM. On the same count and under the same terms, the same measure for `C#Cc1nc(-c2ccc(F)cc2)c(-c2ccncc2)n1C`: 730 nM; for `CC(=O)OC[C@H]1O[C@H](OC(C)=O)[C@H](n2cc(-c3nc(-c4ccc(F)cc4)c(-c4ccncc4)o3)nn2)[C@@H](OC(C)=O)[C@@H]1OC(C)=O`: over 100000 nM; for `CC(=O)OC[C@H]1O[C@H](OC(C)=O)[C@H](n2cc(-c3nc(-c4ccc(F)cc4)c(-c4ccncc4)n3C)nn2)[C@@H](OC(C)=O)[C@@H]1OC(C)=O`: over 100000 nM. Take `Cn1c(-c2cn([C@@H](CC(=O)O)C(=O)O)nn2)nc(-c2ccc(F)cc2)c1-c1ccncc1`: the concentration for half-maximal inhibition (IC50) in assay [1] was found to be 2300 nM.

`OC[C@H]1O[C@H](O)[C@H](n2cc(-c3nc(-c4ccc(F)cc4)c(-c4ccncc4)o3)nn2)[C@@H](O)[C@@H]1O`: in assay [1], the IC50 stood at 1190 nM. Regarding `O=C(c1ccc(-n2cc(-c3nc(-c4ccc(F)cc4)c(-c4ccncc4)o3)nn2)cc1)N1CCN(CCO)CC1`, in assay [1], the midpoint of inhibition, the IC50, lay at 2400 nM.
